From patent US8207177B2, “Inhibitors of E1 activating enzymes” (Millennium Pharmaceuticals, Inc., priority 2006, dated 2012)
pIC50: −log10 of the molar value.

Biological target: T1, recombinant human NAE enzyme (Homo sapiens, UniProt Q8TBC4)
T1 construct: His (N); made in house; host or cells: Sf9 insect cells (baculovirus, Bac-to-Bac), purified on Ni-NTA
T1 sequence (Q8TBC4 1-463): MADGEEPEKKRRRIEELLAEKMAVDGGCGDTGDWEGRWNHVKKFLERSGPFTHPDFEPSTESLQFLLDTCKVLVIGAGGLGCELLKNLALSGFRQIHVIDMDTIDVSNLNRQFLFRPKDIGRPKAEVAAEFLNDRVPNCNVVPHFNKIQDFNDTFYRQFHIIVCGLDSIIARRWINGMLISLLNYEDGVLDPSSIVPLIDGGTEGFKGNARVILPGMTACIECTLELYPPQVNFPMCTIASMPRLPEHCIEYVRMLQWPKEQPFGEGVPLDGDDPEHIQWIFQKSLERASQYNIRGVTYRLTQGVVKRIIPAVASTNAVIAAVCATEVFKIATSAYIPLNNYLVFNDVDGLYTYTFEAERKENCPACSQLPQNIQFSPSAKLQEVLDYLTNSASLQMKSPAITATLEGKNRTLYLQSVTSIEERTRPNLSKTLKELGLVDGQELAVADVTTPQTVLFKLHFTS
T1 sequence (Q13564 1-534 partner): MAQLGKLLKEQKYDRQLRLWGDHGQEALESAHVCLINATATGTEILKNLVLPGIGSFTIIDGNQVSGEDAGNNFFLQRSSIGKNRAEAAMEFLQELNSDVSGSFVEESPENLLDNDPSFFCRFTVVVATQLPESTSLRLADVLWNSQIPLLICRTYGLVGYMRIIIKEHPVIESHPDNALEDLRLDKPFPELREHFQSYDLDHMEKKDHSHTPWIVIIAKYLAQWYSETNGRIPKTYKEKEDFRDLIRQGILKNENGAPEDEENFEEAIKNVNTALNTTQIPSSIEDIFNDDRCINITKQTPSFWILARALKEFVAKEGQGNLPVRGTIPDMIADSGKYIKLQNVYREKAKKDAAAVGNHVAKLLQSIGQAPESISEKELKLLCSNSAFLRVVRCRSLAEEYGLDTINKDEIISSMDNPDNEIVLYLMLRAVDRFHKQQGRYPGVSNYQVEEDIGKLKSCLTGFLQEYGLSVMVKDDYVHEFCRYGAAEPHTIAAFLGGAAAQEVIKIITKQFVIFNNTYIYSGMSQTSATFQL
Experiment: Nedd8-Activating Enzyme (NAE) HTRF Assay
Assay type: biochemical
Conditions: threshold statement: less than or equal to 100 nM; 20 μM ATP, 90 minutes at 24° C.
Protocol: Following manufacturer instructions, baculoviruses were generated with the Bac-to-Bac Expression System (Invitrogen) for the following proteins: untagged NAEα (APPBP1; NP_003896.1), N-terminally His-tagged NAEβ (UBE1C; NP_003959.3), untagged SAEα (SAE1; NP_005491.1), N-terminally His-tagged SAEβ (UBA2; NP_005490.1), N-terminally His-tagged murine UAE (UBE1X; NP_033483). NAEα/His-NAEβ and SAEα/His-SAEβ complexes were generated by co-infection of Sf9 cells, which were harvested after 48 hours. His-mUAE was generated by single infection of Sf9 cells and harvested after 72 hours. Expressed proteins were purified by affinity chromatography (Ni—NTA agarose, Qiagen) using standard buffers. Ubc12 (UBE2M; NP_003960.1), Ubc9 (UBE2I; NP_003336.1), Ubc2 (UBE2A; NP_003327.2) were subcloned into pGEX (Pharmacia) and expressed as N-terminally GST tagged fusion proteins in E. coli. Expressed proteins were purified by conventional affinity chromatography using standard buffers. Nedd8 (NP_006147), Sumo-1 (NP_003343) and Ubiquitin (with optimized codons) were subcloned into pFLAG-2 (Sigma) and expressed as N-terminally Flag tagged fusion proteins in E. coli. Expressed proteins were purified by conventional chromatography using standard buffers. Nedd8-Activating Enzyme (NAE) HTRF Assay. The NAE enzymatic reaction totaled 50 μL and contained 50 mM HEPES (pH 7.5), 0.05% BSA, 5 mM MgCl2, 20 μM ATP, 250 μM GSH, 0.01 μM Ubc12-GST, 0.075 μM Nedd8-Flag and 0.28 nM recombinant human NAE enzyme. The enzymatic reaction mixture, with and without compound inhibitor, was incubated at 24° C. for 90 minutes in a 384-well plate before termination with 25 μL of Stop/Detection buffer (0.1M HEPES pH 7.5, 0.05% Tween20, 20 mM EDTA, 410 mM KF, 0.53 nM Europium-Cryptate labeled monoclonal anti-FLAG M2 antibody (CisBio International) and 8.125 μg/mL PHYCOLINK goat anti-GST allophycocyanin (XL-APC) antibody (Prozyme)). After incubation for 3 hours at 24° C., quantification of the FRET was performed on the Analyst™ HT 96.384 (Molecular Devices).

Row | Compound | pIC50
1 | CC1(C)C[C@H](Nc2ncnc3c2ccn3[C@@H]2C[C@@H](COS(N)(=O)=O)[C@@H](O)C2)c2ccc(Cl)cc21 [Compound I-67, [(1S,2S,4R)-4-(4-{[(1S)-5-chloro-3,3-dimethyl-2,3-dihydro-1H-inden-1-yl]amino)-7H-pyrrolo[2,3-d]pyrimidin-7-yl)-2-hydroxycyclopentyl]methyl sulfamate] | ≥ 7.00
2 | CCO[C@H]1Cc2ccccc2[C@H]1Nc1ncnc2c1ccn2[C@@H]1C[C@@H](COS(N)(=O)=O)[C@@H](O)C1 [Compound I-70, [(1S,2S,4R)-4-(4-{[(1R,2S)-2-ethoxy-2,3-dihydro-1H-inden-1-yl]amino}-7H-pyrrolo[2,3-d]pyrimidin-7-yl)-2-hydroxycyclopentyl]methyl sulfamate] | ≥ 7.00
3 | NS(=O)(=O)OC[C@@H]1C[C@@H](n2ccc3c(N[C@H]4CCc5c(F)ccc(F)c54)ncnc32)C[C@@H]1O [Compound I-62, [(1S,2S,4R)-4-(4-{[(1S)-4,7-difluoro-2,3-dihydro-1H-inden-1-yl]amino}-7H-pyrrolo[2,3-d]pyrimidin-7-yl)-2-hydroxycyclopentyl]methyl sulfamate] | ≥ 7.00
4 | Cc1ncnc2c1ccn2[C@@H]1C[C@@H](COS(N)(=O)=O)[C@@H](O)C1 [Compound I-46, [(1S,2S,4R)-2-hydroxy-4-(4-methyl-7H-pyrrolo[2,3-d]pyrimidin-7-yl)cyclopentyl]methyl sulfamate] | ≥ 7.00
5 | NS(=O)(=O)OC[C@@H]1C[C@@H](n2ccc3c(NCc4ccc(Cl)cc4)ncnc32)C[C@@H]1O [Compound I-45, ((1S,2S,4R)-4-{4-[(4-chlorobenzyl)amino]-7H-pyrrolo[2,3-d]pyrimidin-7-yl}-2-hydroxycyclopentyl)methyl sulfamate] | ≥ 7.00
6 | NS(=O)(=O)OC[C@@H]1C[C@@H](n2ccc3c(N[C@@H]4c5ccccc5C[C@@H]4O)ncnc32)C[C@@H]1O [Compound I-71, [(1S,2S,4R)-2-hydroxy-4-(4-{[(1R,2S)-2-hydroxy-2,3-dihydro-1H-inden-1-yl]amino}-7H-pyrrolo[2,3-d]pyrimidin-7-yl)cyclopentyl]methyl sulfamate] | ≥ 7.00
7 | NS(=O)(=O)OC[C@@H]1C[C@@H](n2ccc3c(NCc4cccc(Cl)c4)ncnc32)C[C@@H]1O [Compound I-51, ((1S,2S,4R)-4-{4-[(3-chlorobenzyl)amino]-7H-pyrrolo[2,3-d]pyrimidin-7-yl}-2-hydroxycyclopentyl)methyl sulfamate] | ≥ 7.00
8 | COC[C@H]1Cc2ccccc2C1Nc1ncnc2c1ccn2[C@@H]1C[C@@H](COS(N)(=O)=O)[C@@H](O)C1 (stereo in doubt) [Compound I-80, [(1S,2S,4R)-2-hydroxy-4-(4-{[(1S,2S)-2-(methoxymethyl)-2,3-dihydro-1H-inden-1-yl]amino}-7H-pyrrolo[2,3-d]pyrimidin-7-yl)cyclopentyl]methyl sulfamate] | ≥ 7.00
9 | NS(=O)(=O)OC[C@@H]1C[C@@H](n2ccc3c(CCc4ccccc4)ncnc32)C[C@@H]1O [Compound I-28, {(1S,2S,4R)-2-hydroxy-4-[4-(2-phenylethyl)-7H-pyrrolo[2,3-d]pyrimidin-7-yl]-cyclopentyl}methyl sulfamate] | ≥ 7.00
10 | NS(=O)(=O)OC[C@@H]1C[C@@H](n2ccc3c(NCc4ccc(Cl)c(Cl)c4)ncnc32)C[C@@H]1O [Compound I-24, ((1S,2S,4R)-4-{4-[(3,4-dichlorobenzyl)amino]-7H-pyrrolo[2,3-d]pyrimidin-7-yl}-2-hydroxycyclopentyl)methyl sulfamate] | ≥ 7.00

Other lines, results leading:

Row | pIC50 | Compound
11 | ≥ 7.00 | NS(=O)(=O)OC[C@@H]1C[C@@H](n2ccc3c(N[C@H]4CCc5cccc(F)c54)ncnc32)C[C@@H]1O [Compound I-66, [(1S,2S,4R)-4-(4-{[(1S)-7-fluoro-2,3-dihydro-1H-inden-1-yl]amino}-7H-pyrrolo[2,3-d]pyrimidin-7-yl)-2-hydroxycyclopentyl]methyl sulfamate]
12 | ≥ 7.00 | NS(=O)(=O)OC[C@@H]1C[C@@H](n2ccc3c(N[C@H]4CCc5cc(Cl)ccc54)ncnc32)C[C@@H]1O [Compound I-27, [(1S,2S,4R)-4-(4-}[(1S)-5-chloro-2,3-dihydro-1H-inden-1-yl]amino}-7H-pyrrolo-[2,3-d]pyrimidin-7-yl)-2-hydroxycyclopentyl]methyl sulfamate]
13 | ≥ 7.00 | NS(=O)(=O)OC[C@@H]1C[C@@H](n2ccc3c(NCc4cccc5ccccc45)ncnc32)C[C@@H]1O [Compound I-38, ((1S,2S,4R)-2-hydroxy-4-{4-[(1-naphthylmethyl)amino]-7H-pyrrolo[2,3-d]-pyrimidin-7-yl}cyclopentyl)methyl sulfamate]
14 | ≥ 7.00 | C[C@]1(O)C[C@H](n2ccc3c(N[C@H]4CCc5ccccc54)ncnc32)C[C@H]1COS(N)(=O)=O [Compound I-30, ((1S,2S,4R)-4-{4-[(1S)-2,3-dihydro-1H-inden-1-ylamino]-7H-pyrrolo[2,3-d]-pyrimidin-7-yl}-2-hydroxy-2-methylcyclopentyl)methyl sulfamate]
15 | ≥ 7.00 | CN(c1ncnc2c1ccn2[C@@H]1C[C@@H](COS(N)(=O)=O)[C@@H](O)C1)[C@H]1CCc2ccccc21 [Compound I-6, ((1S,2S,4R)-4-{4-[(1S)-2,3-dihydro-1H-inden-1-yl(methyl)amino]-7H-pyrrolo-[2,3-d]pyrimidin-7-yl}-2-hydroxycyclopentyl)methyl sulfamate]
16 | ≥ 7.00 | C[C@H](Nc1ncnc2c1ccn2[C@@H]1C[C@@H](COS(N)(=O)=O)[C@@H](O)C1)c1ccccc1 [Compound I-4, [(1S,2S,4R)-2-hydroxy-4-(4-{[(1S)-1-phenylethyl]amino}-7H-pyrrolo[2,3-d]-pyrimidin-7-yl)cyclopentyl]methyl sulfamate]
17 | ≥ 7.00 | NS(=O)(=O)OC[C@@H]1C[C@@H](n2ccc3c(NCc4ccc5c(c4)OCO5)ncnc32)C[C@@H]1O [Compound I-26, ((1S,2S,4R)-4-{4-[(1,3-benzodioxol-5-ylmethyl)amino]-7H-pyrrolo[2,3-d]-pyrimidin-7-yl}-2-hydroxycyclopentyl)methyl sulfamate]
18 | ≥ 7.00 | CC[C@H]1Cc2ccccc2[C@H]1Nc1ncnc2c1ccn2[C@@H]1C[C@@H](COS(N)(=O)=O)[C@@H](O)C1 [Compound I-84, [(1S,2S,4R)-4-(4-{[(1S,2S)-2-ethyl-2,3-dihydro-1H-inden-1-yl]amino}-7H-pyrrolo[2,3-d]pyrimidin-7-yl)-2-hydroxycyclopentyl]methyl sulfamate]
19 | ≥ 7.00 | NS(=O)(=O)OC[C@@H]1C[C@@H](n2ccc3c(N[C@H]4CCc5cc(Br)ccc54)ncnc32)C[C@@H]1O [Compound I-33, [(1S,2S,4R)-4-(4-{[(1S)-5-bromo-2,3-dihydro-1H-inden-1-yl]amino}-7H-pyrrolo-[2,3-d]pyrimidin-7-yl)-2-hydroxycyclopentyl]methyl sulfamate]
20 | ≥ 7.00 | NS(=O)(=O)OC[C@@H]1C[C@@H](n2ccc3c(OCc4ccc(Cl)cc4)ncnc32)C[C@@H]1O [Compound I-34, ((1S,2S,4R)-4-{4-[(4-chlorobenzyl)oxy]-7H-pyrrolo[2,3-d]pyrimidin-7-yl}-2-hydroxycyclopentyl)methyl sulfamate]
